Reference: patent US10294202B2, “Pyrrolidinones as herbicides” (FMC Corporation, priority 2013, dated 2019)

Experiments:
sedge, umbrella = assay: Test B flooded paddy test; format: in vivo, Cyperus difformis; conditions: 500 g ai/ha, Flood; scale of 0 to 100 where 0 is no effect and 100 is complete control
Procedure, shortened: (§1)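 Paddy-water application at a 3 cm flood, young plants having two leaves. Water level maintained; greenhouse, 13–15 days; visual 0–100 control rating.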

rice = assay: Test B flooded paddy test; format: in vivo, Oryza sativa; conditions: 500 g ai/ha, Flood; scale of 0 to 100 where 0 is no effect and 100 is complete control
Procedure, shortened: as §1

galium = assay: Test A postemergence herbicide test; format: in vivo, Galium aparine; conditions: for Plant response rating, Galium: 125 g ai/ha, 0 to 100 scale, 0 is no effect, 100 is complete control; for Galium plant response rating (0 to 100 scale, 0 is no effect, 100 is complete control): 500 g ai/ha
Procedure, shortened: (§2)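 Visual injury rating, 0 (no effect) to 100 (complete control), versus untreated controls ~10 days after treatment. Postemergence spray applied at one- to two-leaf stage, plants 2–10 cm tall, potted in loam soil/sand. Greenhouse-held.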

wheat = assay: Test A pre-/postemergence herbicide test; format: in vivo, Triticum aestivum; conditions: Postemergence; for Plant response rating, Wheat: 125 g ai/ha, 0 to 100 scale, 0 is no effect, 100 is complete control; for Wheat plant response rating (0 to 100 scale, 0 is no effect, 100 is complete control): 500 g ai/ha
Procedure, shortened: (§3)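 Directed soil spray to seeded pots (preemergence) or spray onto one- to two-leaf seedlings 2–10 cm tall (postemergence); loam/sand substrate throughout. Evaluated visually after about 10 days against untreated plants, 0 = no effect, 100 = complete control.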

kochia = assay: Test A pre-/postemergence herbicide test; format: in vivo, Kochia scoparia; conditions: for Plant response rating, Kochia: 0 to 100 scale
Procedure, shortened: as §3

barnyardgrass [1] = assay: Test A pre-/postemergence herbicide test; format: in vivo, Echinochloa crus-galli; conditions: for Plant response rating, Barnyardgrass: 0 to 100 scale
Procedure, shortened: as §3

pigweed = assay: Test A pre-/postemergence herbicide test; format: in vivo, Amaranthus retroflexus; conditions: for Plant response rating, Pigweed: 0 to 100 scale
Procedure, shortened: as §3

ducksalad = assay: Test B flooded paddy test; format: in vivo, Heteranthera limosa; conditions: 500 g ai/ha, Flood; scale of 0 to 100 where 0 is no effect and 100 is complete control
Procedure, shortened: as §1

ryegrass, Italian = assay: Test A pre-/postemergence herbicide test; format: in vivo, Lolium multiflorum; conditions: for Plant response rating, Ryegrass, Italian: 0 to 100 scale
Procedure, shortened: as §3

corn = assay: Test A pre-/postemergence herbicide test; format: in vivo, Zea mays; conditions: Postemergence; for Plant response rating, Corn: 125 g ai/ha, 0 to 100 scale, 0 is no effect, 100 is complete control; for Corn plant response rating (0 to 100 scale, 0 is no effect, 100 is complete control): 500 g ai/ha
Procedure, shortened: as §3

blackgrass = assay: Test A postemergence herbicide test; format: in vivo, Alopecurus myosuroides; conditions: for Plant response rating, Blackgrass: 125 g ai/ha, 0 to 100 scale, 0 is no effect, 100 is complete control; for Blackgrass plant response rating (0 to 100 scale, 0 is no effect, 100 is complete control): 500 g ai/ha
Procedure, shortened: as §2

ragweed = assay: Test A pre-/postemergence herbicide test; format: in vivo, Ambrosia elatior; conditions: for Plant response rating, Ragweed: 0 to 100 scale
Procedure, shortened: as §3

barnyardgrass [2] = assay: Test B flooded paddy test; format: in vivo, Echinochloa crus-galli; conditions: 500 g ai/ha, Flood; scale of 0 to 100 where 0 is no effect and 100 is complete control
Procedure, shortened: as §1

giant foxtail = assay: Test A pre-/postemergence herbicide test; format: in vivo, Setaria faberii; conditions: for Plant response rating, Foxtail, Giant: 0 to 100 scale
Procedure, shortened: as §3

[3] = 125 g ai/ha, visual rating, 0 no effect, 100 complete control, approximately 10 days, preemergence
[4] = Postemergence, 125 g ai/ha, 0 is no effect, 100 is complete control
[5] = preemergence, 500 g ai/ha, 0 is no effect and 100 is complete control

## O=C1NCC(c2ccc(Cl)cc2)C1C(=O)Nc1cccc(Cl)c1Cl (stereo not drawn) [Compound 221]
sedge, umbrella
  Plant response rating, Sedge, Umbrella: 0
rice
  Plant response rating, Rice: 0
galium
  Plant response rating, Galium: 0
  Galium plant response rating (0 to 100 scale, 0 is no effect, 100 is complete control): 0
wheat
  Plant response rating, Wheat: 0
  Wheat plant response rating (0 to 100 scale, 0 is no effect, 100 is complete control): 0
kochia; [3]
  Plant response rating, Kochia: 0
kochia; [4]
  Plant response rating, Kochia: 0
kochia; Postemergence, 500 g ai/ha
  Kochia plant response rating (0 to 100 scale, 0 is no effect, 100 is complete control): 0
kochia; [5]
  Plant response rating, Kochia: 0
Barnyardgrass [1]; [3]
  Plant response rating, Barnyardgrass: 0
Barnyardgrass [1]; [4]
  Plant response rating, Barnyardgrass: 0
Barnyardgrass [1]; Postemergence, 500 g ai/ha
  Barnyardgrass plant response rating (0 to 100 scale, 0 is no effect, 100 is complete control): 0
Barnyardgrass [1]; [5]
  Plant response rating, Barnyardgrass: 0
pigweed; [3]
  Plant response rating, Pigweed: 0
pigweed; [4]
  Plant response rating, Pigweed: 0
pigweed; Postemergence, 500 g ai/ha
  Pigweed plant response rating (0 to 100 scale, 0 is no effect, 100 is complete control): 0
pigweed; [5]
  Plant response rating, Pigweed: 0
ducksalad
  Plant response rating, Ducksalad: 0
ryegrass, Italian; [3]
  Plant response rating, Ryegrass, Italian: 0
ryegrass, Italian; [4]
  Plant response rating, Ryegrass, Italian: 0
ryegrass, Italian; Postemergence, 500 g ai/ha
  Ryegrass, Italian plant response rating (0 to 100 scale, 0 is no effect, 100 is complete control): 0
ryegrass, Italian; [5]
  Plant response rating, Ryegrass, Italian: 0
corn
  Plant response rating, Corn: 0
  Corn plant response rating (0 to 100 scale, 0 is no effect, 100 is complete control): 0
blackgrass
  Plant response rating, Blackgrass: 0
  Blackgrass plant response rating (0 to 100 scale, 0 is no effect, 100 is complete control): 0
ragweed; [3]
  Plant response rating, Ragweed: 0
ragweed; [4]
  Plant response rating, Ragweed: 0
ragweed; Postemergence, 500 g ai/ha
  Ragweed plant response rating (0 to 100 scale, 0 is no effect, 100 is complete control): 0
ragweed; [5]
  Plant response rating, Ragweed: 0
Barnyardgrass [2]
  Plant response rating, Barnyardgrass: 0
Giant foxtail; [3]
  Plant response rating, Foxtail, Giant: 60
Giant foxtail; [4]
  Plant response rating, Foxtail, Giant: 0
Giant foxtail; Postemergence, 500 g ai/ha
  Foxtail, Giant plant response rating (0 to 100 scale, 0 is no effect, 100 is complete control): 30
Giant foxtail; [5]
  Plant response rating, Foxtail, Giant: 80

## O=C1NCC(c2cccc(OC(F)F)c2)C1C(=O)Nc1ccccc1C(F)(F)F (stereo not drawn) [Compound 222]
sedge, umbrella
  Plant response rating, Sedge, Umbrella: 0
rice
  Plant response rating, Rice: 0
galium
  Plant response rating, Galium: 30
  Galium plant response rating (0 to 100 scale, 0 is no effect, 100 is complete control): 60
wheat
  Plant response rating, Wheat: 20
  Wheat plant response rating (0 to 100 scale, 0 is no effect, 100 is complete control): 30
kochia; [3]
  Plant response rating, Kochia: 0
kochia; [4]
  Plant response rating, Kochia: 0
kochia; Postemergence, 500 g ai/ha
  Kochia plant response rating (0 to 100 scale, 0 is no effect, 100 is complete control): 40
kochia; [5]
  Plant response rating, Kochia: 50
Barnyardgrass [1]; [3]
  Plant response rating, Barnyardgrass: 70
Barnyardgrass [1]; [4]
  Plant response rating, Barnyardgrass: 70
Barnyardgrass [1]; Postemergence, 500 g ai/ha
  Barnyardgrass plant response rating (0 to 100 scale, 0 is no effect, 100 is complete control): 90
Barnyardgrass [1]; [5]
  Plant response rating, Barnyardgrass: 90
pigweed; [3]
  Plant response rating, Pigweed: 0
pigweed; [4]
  Plant response rating, Pigweed: 0
pigweed; Postemergence, 500 g ai/ha
  Pigweed plant response rating (0 to 100 scale, 0 is no effect, 100 is complete control): 20
pigweed; [5]
  Plant response rating, Pigweed: 30
ducksalad
  Plant response rating, Ducksalad: 100
ryegrass, Italian; [3]
  Plant response rating, Ryegrass, Italian: 20
ryegrass, Italian; [4]
  Plant response rating, Ryegrass, Italian: 20
ryegrass, Italian; Postemergence, 500 g ai/ha
  Ryegrass, Italian plant response rating (0 to 100 scale, 0 is no effect, 100 is complete control): 30
ryegrass, Italian; [5]
  Plant response rating, Ryegrass, Italian: 50
corn
  Plant response rating, Corn: 20
  Corn plant response rating (0 to 100 scale, 0 is no effect, 100 is complete control): 60
blackgrass
  Plant response rating, Blackgrass: 30
  Blackgrass plant response rating (0 to 100 scale, 0 is no effect, 100 is complete control): 60
ragweed; [3]
  Plant response rating, Ragweed: 0
ragweed; [4]
  Plant response rating, Ragweed: 0
ragweed; Postemergence, 500 g ai/ha
  Ragweed plant response rating (0 to 100 scale, 0 is no effect, 100 is complete control): 40
ragweed; [5]
  Plant response rating, Ragweed: 20
Barnyardgrass [2]
  Plant response rating, Barnyardgrass: 60
Giant foxtail; [3]
  Plant response rating, Foxtail, Giant: 90
Giant foxtail; [4]
  Plant response rating, Foxtail, Giant: 80
Giant foxtail; Postemergence, 500 g ai/ha
  Foxtail, Giant plant response rating (0 to 100 scale, 0 is no effect, 100 is complete control): 90
Giant foxtail; [5]
  Plant response rating, Foxtail, Giant: 90

## O=C1NCC(c2ccc(OC(F)F)cc2)C1C(=O)Nc1ccccc1Br (stereo not drawn) [Compound 225]
sedge, umbrella
  Plant response rating, Sedge, Umbrella: 0
rice
  Plant response rating, Rice: 0
galium
  Plant response rating, Galium: 20
  Galium plant response rating (0 to 100 scale, 0 is no effect, 100 is complete control): 30
wheat
  Plant response rating, Wheat: 0
  Wheat plant response rating (0 to 100 scale, 0 is no effect, 100 is complete control): 20
kochia; [3]
  Plant response rating, Kochia: 0
kochia; [4]
  Plant response rating, Kochia: 0
kochia; Postemergence, 500 g ai/ha
  Kochia plant response rating (0 to 100 scale, 0 is no effect, 100 is complete control): 0
kochia; [5]
  Plant response rating, Kochia: 30
Barnyardgrass [1]; [3]
  Plant response rating, Barnyardgrass: 20
Barnyardgrass [1]; [4]
  Plant response rating, Barnyardgrass: 30
Barnyardgrass [1]; Postemergence, 500 g ai/ha
  Barnyardgrass plant response rating (0 to 100 scale, 0 is no effect, 100 is complete control): 60
Barnyardgrass [1]; [5]
  Plant response rating, Barnyardgrass: 30
pigweed; [3]
  Plant response rating, Pigweed: 0
pigweed; [4]
  Plant response rating, Pigweed: 0
pigweed; Postemergence, 500 g ai/ha
  Pigweed plant response rating (0 to 100 scale, 0 is no effect, 100 is complete control): 0
pigweed; [5]
  Plant response rating, Pigweed: 0
ducksalad
  Plant response rating, Ducksalad: 90
ryegrass, Italian; [3]
  Plant response rating, Ryegrass, Italian: 0
ryegrass, Italian; [4]
  Plant response rating, Ryegrass, Italian: 0
ryegrass, Italian; Postemergence, 500 g ai/ha
  Ryegrass, Italian plant response rating (0 to 100 scale, 0 is no effect, 100 is complete control): 0
ryegrass, Italian; [5]
  Plant response rating, Ryegrass, Italian: 40
corn
  Plant response rating, Corn: 0
  Corn plant response rating (0 to 100 scale, 0 is no effect, 100 is complete control): 20
blackgrass
  Plant response rating, Blackgrass: 0
  Blackgrass plant response rating (0 to 100 scale, 0 is no effect, 100 is complete control): 30
ragweed; [3]
  Plant response rating, Ragweed: 0
ragweed; [4]
  Plant response rating, Ragweed: 0
ragweed; Postemergence, 500 g ai/ha
  Ragweed plant response rating (0 to 100 scale, 0 is no effect, 100 is complete control): 0
ragweed; [5]
  Plant response rating, Ragweed: 0
Barnyardgrass [2]
  Plant response rating, Barnyardgrass: 0
Giant foxtail; [3]
  Plant response rating, Foxtail, Giant: 80
Giant foxtail; [4]
  Plant response rating, Foxtail, Giant: 40
Giant foxtail; Postemergence, 500 g ai/ha
  Foxtail, Giant plant response rating (0 to 100 scale, 0 is no effect, 100 is complete control): 70
Giant foxtail; [5]
  Plant response rating, Foxtail, Giant: 90
